Results from patent US6962912B2, “Substituted pyrazolo[4,3-e]diazepines, pharmaceutical compositions containing them, use as medicinal products and processes for preparing them” (Warner-Lambert LLC, priority 2000, dated 2005).

How the values were obtained:
PDE4 = assay: Inhibition of PDE4 (cytosolic enzyme preparation from U937 line), compared with rolipram; assay type: biochemical, human; conditions: PDE4 enzyme preparation obtained from the U937 line
production of TNFα = assay: in vivo TNFα model in Wistar rats (LPS-induced); conditions: oral administration 30 min before i.p. LPS; plasma 90 min after LPS; male Wistar rats
Excerpt: TNFα is a cytokine which plays a central role in the mechanisms of inflammation. Its production can be induced by an injection of lipopolysaccharide (LPS). It has been shown that the increase in intracellular cAMP, produced in particular by PDE4 inhibitors, decreases the production of TNFα in in vitro and in vivo models. It is thus a matter here of quantifying in vivo the anti-inflammatory potential of the compounds of the invention, administered orally (p.o.) by measuring the inhibition of the production of TNFα in the plasma of rats, these rats having received an intraperitoneal (i.p.) injection of lipopolysaccharide (LPS). The treatment with the compounds of the invention or the vehicle are [sic] administered orally to male Wistar rats, 30 min before the injection of LPS. The rats are sacrificed 90 min after the stimulation with LPS, the blood is collected onto EDTA and the TNFα concentration is measured in each plasma sample. […] References • Chen, Y. L., Le Vraux, V., Giroud, J. P. and Chauvelot-Moachon L. (1994). Anti-tumor necrosis factor properties of non-peptide drugs in acute-phase responses. […] Int. J. Immunopharmacol., 16 (10), 805-816. Model of Eosinophilia in Rats

SMILES | IC50 (PDE4) [nM] | melting point [°C] | inhibition of the production of TNFα in the plasma of rats (production of TNFα)
Cc1nn(CCO)c2c1N=C(c1ccccc1)CNC2=O [Example 16, 1-(2-Hydroxyethyl)-3-methyl-5-phenyl-6,7-dihydro-1H-pyrazolo[4,3-e][1,4]diazepin-8-one] | 420 | 75 | excellent activity
CCn1nc(C)c2c1C(=O)NCC(c1ccc(C)cc1)=N2 [Example 23, 1-Ethyl-3-methyl-5-p-tolyl-6,7-dihydro-1H-pyrazolo[4,3-e][1,4]diazepin-8-one] | 42 | 185 | excellent activity
CCn1nc(C)c2c1C(=O)NCC(c1cccc(N)c1)=N2 [Example 24, 5-(3-Aminophenyl)-1-ethyl-3-methyl-6,7-dihydro-1H-pyrazolo[4,3-e][1,4]diazepin-8-one] | 78 | 80 | excellent activity
CCn1nc(C)c2c1C(=O)NCC(c1ccc(O)cc1)=N2 [Example 28, 1-Ethyl-5-(4-hydroxyphenyl)-3-methyl-6,7-dihydro-1H-pyrazolo[4,3-e][1,4]diazepin-8-one] | 90 | 250 | excellent activity
CCn1nc(C)c2c1C(=O)NCC(C1CCCCC1)=N2 [Example 31, 5-Cyclohexyl-1-ethyl-3-methyl-6,7-dihydro-1H-pyrazolo[4,3-e][1,4]diazepin-8-one] | 190 | 50 | excellent activity
CCn1nc(C)c2c1C(=O)NCC(c1ccncc1)=N2 [Example 32, 1-Ethyl-3-methyl-5-pyrid-4-yl-6,7-dihydro-1H-pyrazolo[4,3-e][1,4]diazepin-8-one] | 130 | 148 | excellent activity

These reach a lower IC50 (PDE4). Values come first.

IC50 (PDE4) [nM] | melting point [°C] | SMILES | inhibition of the production of TNFα in the plasma of rats (production of TNFα)
5.9 | 203.5 | CCn1nc(C)c2c1C(=S)NCC(c1ccccc1)=N2 [Example 17, 1-Ethyl-3-methyl-5-phenyl-6,7-dihydro-1H-pyrazolo[4,3-e][1,4]diazepin-8-thione] | excellent activity
5.6 | 189 | CCn1nc(C(C)(C)C)c2c1C(=O)NCC(c1ccc(N)cc1)=N2 [Example 26, 5-(4-Aminophenyl)-3-tert-butyl-1-ethyl-6,7-dihydro-1H-pyrazolo[4,3-e][1,4]diazepin-8-one] | excellent activity
4.7 | 105.4 | CCCCc1nn(CC)c2c1N=C(c1ccccc1)CNC2=O [Example 34, 3-Butyl-1-ethyl-5-phenyl-6,7-dihydro-1H-pyrazolo[4,3-e][1,4]diazepin-8-one] | excellent activity
2.6 | 160 | CCn1nc(C(C)(C)C)c2c1C(=O)NCC(c1ccccc1)=N2 [Example 21, 3-tert-Butyl-1-ethyl-5-phenyl-6,7-dihydro-1H-pyrazolo[4,3-e][1,4]diazepin-8-one] | excellent activity
2.4 | 230 | CCn1nc(C(C)(C)C)c2c1C(=S)NCC(c1ccccc1)=N2 [Example 25, 3-tert-Butyl-1-ethyl-5-phenyl-6,7-dihydro-1H-pyrazolo[4,3-e][1,4]diazepin-8-thione] | excellent activity
1.7 | 280 | CCn1nc(C)c2c1C(=NC#N)NCC(c1ccccc1)=N2 [Example 55, 1-Ethyl-3-methyl-5-phenyl-6,7-dihydro-1H-pyrazolo[4,3-e][1,4]diazepin-8-ylidenecyanamide] | excellent activity
0.73 | 126 to 127 | CCn1nc(C2CCCCC2)c2c1C(=O)NCC(c1ccncc1)=N2 [Example 73, 3-Cyclohexyl-1-ethyl-5-pyrid-4-yl-6,7-dihydro-1H-pyrazolo-[4,3-e][1,4]diazepin-8-one] | excellent activity
